Results from publication PMC12472947 (Pharmaceuticals, 2025).
“And” between values parts separate entries of the source, which are not always exact repeats. Equal values may be shown once. Read-outs that look alike come from different tables or passages of the source.

Assays:
[1] = target: electric eel AChE [EeAChE] (Electrophorus electricus, UniProt O42275); experiment: biochemical; type: biochemical; details: for IC50: Electric eel AChE, Ellman method, read-out: IC50(nM) ± SD AChE (EeAChE); for SI: Selectivity Index = EqBChE IC50/EeAChE IC50
Method: (§1) The anticholinesterase activity was determined using Ellman’s method, adapted as follows. […] Subsequently, 60 μL of 5,5′-dithiobis(2-nitrobenzoic acid) (DTNB, 1.1 mM) and 30 μL of enzyme solution (electric eel AChE [EeAChE], human AChE [hAChE], or equine serum BChE [EqBChE], 0.20 U/mL) containing 1 mg/mL bovine serum albumin (BSA) were added. […] Enzyme activity was calculated as the percentage relative to untreated controls, subtracting the blank reference. IC50 values were derived via non-linear regression analysis of dose–response curves (Figure S4) using GraphPad Prism v7.0.

[2] = target: T1, equine serum BChE [EqBChE] (Equus caballus, UniProt P81908); experiment: biochemical; details: Ellman method, read-out: IC50(nM) ± SD BChE (EqBChE)
T1 construct: equine serum BChE [EqBChE]; from tissue; host or cells: equine serum
Method: as §1

[3] = target: T2, equine serum butyrylcholinesterase (EqBuChE) (Equus caballus, UniProt P81908); experiment: Enzymatic kinetic study, EqBChE; type: biochemical; details: BChE
T2 construct: equine serum BChE [EqBChE]; from tissue; host or cells: equine serum
Method: (§2) The enzymatic kinetics of cholinesterase inhibition were determined according to an adapted Ellman’s method. All of the solutions were prepared at 20 °C in 0.02 M Tris-HCl buffer (pH 7.5; ionic strength ~0.02 M), stock solutions of test compounds were prepared in DMSO:EtOH (7:3) mixture (20 mM), and the experiment was conducted in triplicate. To a flat-bottom 96-well transparent plate (path length of 0.6 cm) were added 150 μL of treatment solutions with inhibitors 1a, 1h, and 1j at two different concentrations (Table S1) distributed in eight sets of triplicate each. Eight sets of untreated triplicates were used as a negative control. Following, there were added 60 μL of 5,5′-Dithiobis(2-nitrobenzoic acid) (DTNB, Ellman’s reagent) at 1.1 mM and 30 μL of electric eel acetylcholinesterase (EeAChE) or equine serum butyrylcholinesterase (EqBuChE) at 0.20 U/mL in the presence of 1 mg/mL bovine serum albumin (BSA). […] Ki, Ki’ (competitive and noncompetitive inhibition constants, respectively), Km (Michaelis-Menten constant), and Vmax values were calculated with Graphpad Prism v7.0 using the non-linear regression models for enzyme kinetics inhibition and enzyme kinetics–substrate vs. velocity.

[4] = target: electric eel acetylcholinesterase (EeAChE) (Electrophorus electricus, UniProt O42275); experiment: Enzymatic kinetic study, EeAChE; type: biochemical; details: AChE
Method: as §2

[5] = test system: SH-SY5Y neuroblastoma cells; experiment: Cytotoxicity (neurotoxicity) MTT assay in SH-SY5Y; type: cell-based; details: up to 50 µM
Method: (§3) The immortalized human neuroblastoma cell line (SH-SY5Y–ATCC: CRL-2226; BCRJ:0223) was used to evaluate cytotoxicity. The cell line was cultured in Dulbecco’s Modified Eagle’s Medium and F12 in a 1:1 ratio (DMEM:F12; Sigma-Aldrich code 0697, Brazil) supplemented with 10% fetal bovine serum (FBS; Sigma-Aldrich code F2442, Brazil) and 1% streptomycin/penicillin (10,000 U/mL and 10,000 μg/mL, respectively; Nova Biotecnologia code BR30110-01, Cotia, SP, Brazil) and incubated at 37 °C with 5% CO2. The culture medium was replaced every 48 h, until the cells reached semi-confluence (≥70%). Cell passage was carried out with the aid of trypsin-EDTA/0.25% solution (Nova Biotecnologia, Brazil) and divided between 5 or 8 mL culture volumes depending on the respective bottles (25 or 75 cm^2) used.
(§4) The in vitro cytotoxicity assay evaluated cell viability using the [3-(4,5-dimethylthiazol-2yl)-2,5-diphenyl tetrazolium] bromide (MTT) reduction assay. Cells were seeded at an initial density of 5.0 × 10^4 cells/well in 96-well plates in a volume of 200 µL. […] In the next step, the culture medium was replaced by the sample solution previously described (Section 3.4.2). After 24 h exposure, the medium was replaced with 100 μL of MTT in phosphate-buffer saline (PBS), pH 7.4, at a concentration of 0.5 mg.mL^−1/well and the plates were incubated for an additional 3 h. Then, the MTT solution was removed, and 100 μL of DMSO was added to solubilize the formazan crystals. The cell viability was measured by absorbance at 562 nm using a Microplate Absorbance Reader (Kasuaki, Brazil). All concentrations tested were evaluated in nine replicates (n = 9). The variation in results was observed using ANOVA followed by Tukey’s test for multiple comparisons through GraphPad Prism v5^TM with a significance level of p < 0.05.

[6] = Cytotoxicity (neurotoxicity) MTT assay in SH-SY5Y; type: cell-based; details: human, SH-SY5Y neuroblastoma cells
Method: as §3, §4

[7] = test system: H2O2-damaged SH-SY5Y cells; experiment: In vitro neuroprotection against H2O2 in SH-SY5Y (MTT)
Method: For the neuroprotection assay, the cells previously cultured (Section 3.4.1) were seeded in 96-well plates at a density of 5 × 10^4 cells/well in a volume of 200 µL. The plates were incubated at 37 °C containing 5% CO2 for 24 h. After 24 h, the medium was replaced with the test solutions. […] Finally, the test solutions were removed, the cells were washed with PBS pH 7.4, and the H2O2 solution was added and maintained in contact with the cells for 24 h. After 24 h exposure, the neuroprotective capacity was assessed through cell viability using the MTT assay protocol previously described in Section 3.4.3 [52, 53].

[8] = enzyme-substrate complex, global non-linear regression (Table 2)
[9] = global non-linear regression, mixed inhibition (Table S3)

electric eel AChE [EeAChE], sequence (O42275 24-633): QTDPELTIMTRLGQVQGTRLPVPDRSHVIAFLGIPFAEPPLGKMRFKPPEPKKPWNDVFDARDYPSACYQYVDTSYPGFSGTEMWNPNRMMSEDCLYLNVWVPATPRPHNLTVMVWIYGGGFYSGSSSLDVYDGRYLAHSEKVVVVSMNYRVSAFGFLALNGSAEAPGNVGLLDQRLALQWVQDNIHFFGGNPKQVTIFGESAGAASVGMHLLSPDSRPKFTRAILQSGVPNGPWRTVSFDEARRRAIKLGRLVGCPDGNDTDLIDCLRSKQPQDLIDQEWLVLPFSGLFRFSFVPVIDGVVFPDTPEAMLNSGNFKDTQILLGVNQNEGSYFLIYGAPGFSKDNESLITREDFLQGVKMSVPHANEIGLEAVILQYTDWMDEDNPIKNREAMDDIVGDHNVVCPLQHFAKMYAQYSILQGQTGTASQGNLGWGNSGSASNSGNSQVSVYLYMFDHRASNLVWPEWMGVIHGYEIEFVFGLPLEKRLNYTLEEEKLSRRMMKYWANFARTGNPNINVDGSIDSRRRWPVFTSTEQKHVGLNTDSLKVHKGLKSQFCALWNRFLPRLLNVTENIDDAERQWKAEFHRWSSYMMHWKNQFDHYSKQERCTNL
electric eel acetylcholinesterase (EeAChE), sequence (O42275 24-633): as above
T2 sequence (P81908 whole entry): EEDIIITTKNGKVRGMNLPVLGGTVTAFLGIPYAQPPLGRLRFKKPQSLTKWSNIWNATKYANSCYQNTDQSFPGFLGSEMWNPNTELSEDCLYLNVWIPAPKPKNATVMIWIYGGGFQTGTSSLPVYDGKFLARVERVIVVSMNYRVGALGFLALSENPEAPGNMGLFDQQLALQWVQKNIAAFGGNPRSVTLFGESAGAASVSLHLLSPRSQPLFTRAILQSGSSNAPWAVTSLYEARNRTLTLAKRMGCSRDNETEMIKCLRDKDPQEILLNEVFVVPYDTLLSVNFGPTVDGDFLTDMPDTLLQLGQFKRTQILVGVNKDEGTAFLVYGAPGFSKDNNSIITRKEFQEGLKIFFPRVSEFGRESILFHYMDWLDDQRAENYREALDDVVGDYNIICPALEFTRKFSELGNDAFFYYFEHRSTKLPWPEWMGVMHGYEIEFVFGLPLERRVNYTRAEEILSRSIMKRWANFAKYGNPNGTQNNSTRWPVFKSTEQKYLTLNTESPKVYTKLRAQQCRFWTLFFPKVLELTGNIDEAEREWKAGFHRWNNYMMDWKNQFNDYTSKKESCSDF
T1 sequence (P81908 whole entry): as above

O=c1oc2cc(OCCN3CCCCC3)ccc2cc1-c1cn(-c2ccccc2)nn1 [Compound 1a, 3-(1-Phenyl-1H-1,2,3-triazol-4-yl)-7-(2-(piperidin-1-yl)ethoxy)-2H-chromen-2-one]
IC50 [1]: 50 ± 2.04 nM
SI [1]: 173
IC50 [2]: 8660 ± 150 nM
inhibition mechanism ([3]; Lineweaver-Burk plots): mixed-type inhibition
Ki ([3]; competitive inhibition constant (Table S2), read-out: Ki (nM) ± SD): 3500 ± 64.9 nM
Ki’ (nM) ± SE [3, 8]: 11,400 ± 1100 nM
Ki ([3]; free enzyme (Table S3), read-out: Ki ± SE (95% CI)): 3940 ± 227 nM
Ki ([3]; free enzyme, global non-linear regression (Table 2), read-out: Ki (nM) ± SE): 3940 ± 230 nM
α ± SE (95% CI) [3, 9]: 2.883 ± 0.3970
Vmax ± SD ([3]; inhibitor 4 μM): 11.69 ± 0.201 1 × 10^3 nM/min and 11.69 ± 0.20 1 × 10^3 nM/min
Vmax ± SD ([3]; inhibitor 8 μM): 8.24 ± 0.212 1 × 10^3 nM/min and 8.24 ± 0.21 1 × 10^3 nM/min
inhibition mechanism ([4]; Lineweaver-Burk plots): mixed-type inhibition
Ki′ ± SE (95% CI) ([4]; enzyme-substrate complex (Table S3)): 0.06159 ± 0.02004 µM
Ki’ (nM) ± SE [4, 8]: 61.59 ± 20.04 nM
Ki ([4]; free enzyme, global non-linear regression to mixed-inhibition equation (Table 2), read-out: Ki (nM) ± SE): 30.8 ± 5.38 nM
α ± SE (95% CI) [4, 9]: 2.001 ± 0.6489
Vmax ± SD ([4]; inhibitor 0.02 μM): 2.78 ± 0.044 1 × 10^3 nM/min and 2.78 ± 0.04 1 × 10^3 nM/min
Vmax ± SD ([4]; inhibitor 0.06 μM): 2.06 ± 0.031 1 × 10^3 nM/min and 2.06 ± 0.03 1 × 10^3 nM/min

O=c1oc2cc(OCCCCN3CCCCC3)ccc2cc1-c1cn(-c2ccccc2)nn1 [Compound 1c, 3-(1-Phenyl-1H-1,2,3-triazol-4-yl)-7-(4-(piperidin-1-yl)butoxy)-2H-chromen-2-one]
IC50 [1]: 1110 ± 10 nM
SI [1]: ~2
IC50 [2]: 2410 ± 29 nM

O=c1oc2cc(OCCCCCN3CCCCC3)ccc2cc1-c1cn(-c2ccccc2)nn1 [Compound 1d, 3-(1-Phenyl-1H-1,2,3-triazol-4-yl)-7-((5-(piperidin-1-yl)pentyl)oxy)-2H-chromen-2-one]
IC50 [1]: 4790 ± 290 nM
SI [1]: ~1
IC50 [2]: 3540 ± 81 nM

CC1CCN(CCOc2ccc3cc(-c4cn(-c5ccccc5)nn4)c(=O)oc3c2)CC1 [Compound 1e, 7-(2-(4-Methylpiperidin-1-yl)ethoxy)-3-(1-phenyl-1H-1,2,3-triazol-4-yl)-2H-chromen-2-one]
IC50 [1]: 1690 ± 75 nM
SI [1]: ~7
IC50 [2]: 11100 nM

CN1CCN(CCOc2ccc3cc(-c4cn(-c5ccccc5)nn4)c(=O)oc3c2)CC1 [Compound 1f, 7-(2-(4-Methylpiperazin-1-yl)ethoxy)-3-(1-phenyl-1H-1,2,3-triazol-4-yl)-2H-chromen-2-one]
IC50 [1]: 3160 ± 76 nM
SI [1]: 3
IC50 [2]: 8140 ± 890 nM

O=c1oc2cc(OCCN3CCNCC3)ccc2cc1-c1cn(-c2ccccc2)nn1 [Compound 1g, 3-(1-Phenyl-1H-1,2,3-triazol-4-yl)-7-(2-(piperazin-1-yl)ethoxy)-2H-chromen-2-one]
IC50 [1]: 1060 ± 74 nM
SI [1]: ~8
IC50 [2]: 9840 ± 130 nM

COc1ccccc1Cn1cc(-c2cc3ccc(OCCN4CCCCC4)cc3oc2=O)nn1 [Compound 1i, 3-(1-(2-Methoxybenzyl)-1H-1,2,3-triazol-4-yl)-7-(2-(piperidin-1-yl)ethoxy)-2H-chromen-2-one]
IC50 [1]: 15.3 ± 0.25 nM
SI [1]: 184
IC50 [2]: 2810 ± 230 nM

COc1ccc(Cn2cc(-c3cc4ccc(OCCN5CCCCC5)cc4oc3=O)nn2)cc1 [Compound 1k, 3-(1-(4-Methoxybenzyl)-1H-1,2,3-triazol-4-yl)-7-(2-(piperidin-1-yl)ethoxy)-2H-chromen-2-one]
IC50 [1]: 4.58 ± 0.62 nM
SI [1]: 443
IC50 [2]: 2080 ± 99 nM
neurotoxicity [5]: non-neurotoxic
viability at 24 h, 12.5 µM ([6]; 12.5 μM, 24 h, MTT, read-out: Cell viability (% of control)): 99%
viability at 24 h, 25 µM ([6]; 25.0 μM, 24 h, MTT, read-out: Cell viability (% of control)): 106%
viability at 24 h, 50 µM ([6]; 50.0 μM, 24 h, MTT, read-out: Cell viability (% of control)): 84%
viability at 24 h ([6]; up to 25 μM, read-out: cell viability): ≥ 70%
neuroprotection against H2O2-induced oxidative stress ([7]; 12.5 µM): neuroprotective effects
viability at 12.5 µM ([7]; Homo sapiens, SH-SY5Y, read-out: Cell viability (% of control)): 92%

O=c1oc2cc(OCCN3CCCCC3)ccc2cc1-c1cn(Cc2ccc(F)cc2)nn1 [Compound 1l, 3-(1-(4-Fluorbenzyl)-1H-1,2,3-triazol-4-yl)-7-(2-(piperidin-1-yl)ethoxy)-2H-chromen-2-one]
IC50 [1]: 23.4 ± 1.77 nM
SI [1]: 176
IC50 [2]: 4120 ± 110 nM

O=c1oc2cc(OCCN3CCCCC3)ccc2cc1-c1cn(Cc2cccc(Cl)c2)nn1 [Compound 1m]
IC50 [1]: 13.1 ± 0.83 nM
SI [1]: 149
IC50 [2]: 1950 ± 120 nM

O=c1oc2cc(OCCN3CCCCC3)ccc2cc1-c1cn(Cc2ccc(Cl)cc2)nn1 [Compound 1n, 3-(1-(4-Chlorobenzyl)-1H-1,2,3-triazol-4-yl)-7-(2-(piperidin-1-yl)ethoxy)-2H-chromen-2-one]
IC50 [1]: 104 ± 5.4 nM
IC50 [2]: 2240 ± 60 nM

O=c1oc2cc(OCCN3CCCCC3)ccc2cc1-c1cn(Cc2cccc(Br)c2)nn1 [Compound 1o, 3-(1-(3-Bromobenzyl)-1H-1,2,3-triazol-4-yl)-7-(2-(piperidin-1-yl)ethoxy)-2H-chromen-2-one]
IC50 [1]: 7.92 ± 0.48 nM
SI [1]: 265
IC50 [2]: 2090 ± 54 nM

O=c1oc2cc(OCCN3CCCCC3)ccc2cc1-c1cn(Cc2ccc(Br)cc2)nn1 [Compound 1p, 3-(1-(4-Bromobenzyl)-1H-1,2,3-triazol-4-yl)-7-(2-(piperidin-1-yl)ethoxy)-2H-chromen-2-one]
IC50 [1]: 12.9 ± 0.96 nM
SI [1]: 88
IC50 [2]: 1140 ± 70 nM
